{"source": "PubChem BioAssay (NCI)", "assay_in_all_cases": "NCI anticancer screen, dose series, 48 h", "key": {"UACC-257 melanoma": {"test_system": "UACC-257 melanoma"}, "TK-10 renal": {"test_system": "TK-10 renal"}, "COLO 205 colon": {"test_system": "COLO 205 colon"}, "A498 renal": {"test_system": "A498 renal"}, "KM12 colon": {"test_system": "KM12 colon"}, "BT-549 breast": {"test_system": "BT-549 breast"}, "SN12C renal": {"test_system": "SN12C renal"}, "MCF7 breast": {"test_system": "MCF7 breast"}, "786-0 renal": {"test_system": "786-0 renal"}, "SK-OV-3 ovarian": {"test_system": "SK-OV-3 ovarian"}, "PC-3 prostate": {"test_system": "PC-3 prostate"}, "HOP-92 NSCLC": {"test_system": "HOP-92 NSCLC"}, "T-47D breast": {"test_system": "T-47D breast"}, "SR leukemia": {"test_system": "SR leukemia"}, "NCI-H226 lung": {"test_system": "NCI-H226 lung"}, "K-562 leukemia": {"test_system": "K-562 leukemia"}, "A549 NSCLC": {"test_system": "A549 NSCLC"}, "NCI-H23 lung": {"test_system": "NCI-H23 lung"}, "MDA-MB-231 breast": {"test_system": "MDA-MB-231 breast"}}, "note": "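All cell lines were grown in 96-well plates and treated with compound for 48 hours. TGI: concentration producing complete growth inhibition.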"}
{"smiles": "Cc1n[nH]c(=O)n1/N=C\\CC/C=N\\n1c(C)n[nH]c1=O", "values": [{"measurement": "TGI", "setting": "UACC-257 melanoma", "result": "> 100", "unit": "µM"}, {"measurement": "TGI", "setting": "TK-10 renal", "result": "> 100", "unit": "µM"}, {"measurement": "TGI", "setting": "COLO 205 colon", "result": "> 100", "unit": "µM"}, {"measurement": "TGI", "setting": "A498 renal", "result": "> 100", "unit": "µM"}, {"measurement": "TGI", "setting": "KM12 colon", "result": "> 100", "unit": "µM"}, {"measurement": "TGI", "setting": "BT-549 breast", "result": "> 100", "unit": "µM"}, {"measurement": "TGI", "setting": "SN12C renal", "result": "> 100", "unit": "µM"}, {"measurement": "TGI", "setting": "MCF7 breast", "result": "> 100", "unit": "µM"}, {"measurement": "TGI", "setting": "786-0 renal", "result": "> 100", "unit": "µM"}, {"measurement": "TGI", "setting": "SK-OV-3 ovarian", "result": "> 100", "unit": "µM"}, {"measurement": "TGI", "setting": "PC-3 prostate", "result": "> 100", "unit": "µM"}, {"measurement": "TGI", "setting": "HOP-92 NSCLC", "result": "> 100", "unit": "µM"}, {"measurement": "TGI", "setting": "T-47D breast", "result": "> 100", "unit": "µM"}, {"measurement": "TGI", "setting": "SR leukemia", "result": "> 100", "unit": "µM"}, {"measurement": "TGI", "setting": "NCI-H226 lung", "result": "> 100", "unit": "µM"}, {"measurement": "TGI", "setting": "K-562 leukemia", "result": "> 100", "unit": "µM"}, {"measurement": "TGI", "setting": "A549 NSCLC", "result": "> 100", "unit": "µM"}, {"measurement": "TGI", "setting": "NCI-H23 lung", "result": "> 100", "unit": "µM"}, {"measurement": "TGI", "setting": "MDA-MB-231 breast", "result": "> 100", "unit": "µM"}]}
{"smiles": "O=C(Cc1ccccc1)NCCCN(CCCCN(CCCNC(=O)Cc1ccccc1)C(=O)OCc1ccccc1)C(=O)OCc1ccccc1", "values": [{"measurement": "TGI", "setting": "UACC-257 melanoma", "result": "> 100", "unit": "µM"}, {"measurement": "TGI", "setting": "TK-10 renal", "result": "> 100", "unit": "µM"}, {"measurement": "TGI", "setting": "COLO 205 colon", "result": "> 100", "unit": "µM"}, {"measurement": "TGI", "setting": "A498 renal", "result": "> 100", "unit": "µM"}, {"measurement": "TGI", "setting": "KM12 colon", "result": "> 100", "unit": "µM"}, {"measurement": "TGI", "setting": "BT-549 breast", "result": "> 100", "unit": "µM"}, {"measurement": "TGI", "setting": "SN12C renal", "result": "> 100", "unit": "µM"}, {"measurement": "TGI", "setting": "MCF7 breast", "result": "> 100", "unit": "µM"}, {"measurement": "TGI", "setting": "786-0 renal", "result": "> 100", "unit": "µM"}, {"measurement": "TGI", "setting": "SK-OV-3 ovarian", "result": "> 100", "unit": "µM"}, {"measurement": "TGI", "setting": "PC-3 prostate", "result": "> 100", "unit": "µM"}, {"measurement": "TGI", "setting": "HOP-92 NSCLC", "result": "> 100", "unit": "µM"}, {"measurement": "TGI", "setting": "T-47D breast", "result": "> 100", "unit": "µM"}, {"measurement": "TGI", "setting": "SR leukemia", "result": "> 100", "unit": "µM"}, {"measurement": "TGI", "setting": "NCI-H226 lung", "result": "> 100", "unit": "µM"}, {"measurement": "TGI", "setting": "K-562 leukemia", "result": "> 100", "unit": "µM"}, {"measurement": "TGI", "setting": "A549 NSCLC", "result": "> 100", "unit": "µM"}, {"measurement": "TGI", "setting": "NCI-H23 lung", "result": "> 100", "unit": "µM"}, {"measurement": "TGI", "setting": "MDA-MB-231 breast", "result": "> 100", "unit": "µM"}]}
{"smiles": "O=C(/C=C/c1ccccc1)CSc1nc2ccc(I)cc2c(=O)n1Cc1ccccc1", "values": [{"measurement": "TGI", "setting": "UACC-257 melanoma", "result": "> 100", "unit": "µM"}, {"measurement": "TGI", "setting": "TK-10 renal", "result": "> 84.6", "unit": "µM"}, {"measurement": "TGI", "setting": "COLO 205 colon", "result": "> 67.8", "unit": "µM"}, {"measurement": "TGI", "setting": "A498 renal", "result": 46.4, "unit": "µM"}, {"measurement": "TGI", "setting": "KM12 colon", "result": "> 100", "unit": "µM"}, {"measurement": "TGI", "setting": "BT-549 breast", "result": "> 100", "unit": "µM"}, {"measurement": "TGI", "setting": "SN12C renal", "result": 30.8, "unit": "µM"}, {"measurement": "TGI", "setting": "MCF7 breast", "result": "> 100", "unit": "µM"}, {"measurement": "TGI", "setting": "786-0 renal", "result": 35.9, "unit": "µM"}, {"measurement": "TGI", "setting": "SK-OV-3 ovarian", "result": "> 100", "unit": "µM"}, {"measurement": "TGI", "setting": "PC-3 prostate", "result": "> 96.4", "unit": "µM"}, {"measurement": "TGI", "setting": "HOP-92 NSCLC", "result": 55.2, "unit": "µM"}, {"measurement": "TGI", "setting": "T-47D breast", "result": "> 100", "unit": "µM"}, {"measurement": "TGI", "setting": "SR leukemia", "result": 33.3, "unit": "µM"}, {"measurement": "TGI", "setting": "NCI-H226 lung", "result": "> 84.4", "unit": "µM"}, {"measurement": "TGI", "setting": "K-562 leukemia", "result": "> 100", "unit": "µM"}, {"measurement": "TGI", "setting": "A549 NSCLC", "result": "> 100", "unit": "µM"}, {"measurement": "TGI", "setting": "NCI-H23 lung", "result": "> 100", "unit": "µM"}, {"measurement": "TGI", "setting": "MDA-MB-231 breast", "result": "> 100", "unit": "µM"}]}
{"smiles": "COC(=O)CC(=O)Nc1sccc1S(=O)(=O)c1ccccc1", "values": [{"measurement": "TGI", "setting": "UACC-257 melanoma", "result": "> 100", "unit": "µM"}, {"measurement": "TGI", "setting": "TK-10 renal", "result": "> 100", "unit": "µM"}, {"measurement": "TGI", "setting": "COLO 205 colon", "result": "> 100", "unit": "µM"}, {"measurement": "TGI", "setting": "A498 renal", "result": "> 100", "unit": "µM"}, {"measurement": "TGI", "setting": "KM12 colon", "result": "> 100", "unit": "µM"}, {"measurement": "TGI", "setting": "BT-549 breast", "result": "> 100", "unit": "µM"}, {"measurement": "TGI", "setting": "SN12C renal", "result": "> 100", "unit": "µM"}, {"measurement": "TGI", "setting": "MCF7 breast", "result": "> 100", "unit": "µM"}, {"measurement": "TGI", "setting": "786-0 renal", "result": "> 100", "unit": "µM"}, {"measurement": "TGI", "setting": "SK-OV-3 ovarian", "result": "> 100", "unit": "µM"}, {"measurement": "TGI", "setting": "PC-3 prostate", "result": "> 100", "unit": "µM"}, {"measurement": "TGI", "setting": "HOP-92 NSCLC", "result": "> 100", "unit": "µM"}, {"measurement": "TGI", "setting": "T-47D breast", "result": "> 100", "unit": "µM"}, {"measurement": "TGI", "setting": "SR leukemia", "result": "> 100", "unit": "µM"}, {"measurement": "TGI", "setting": "NCI-H226 lung", "result": 95, "unit": "µM"}, {"measurement": "TGI", "setting": "K-562 leukemia", "result": "> 100", "unit": "µM"}, {"measurement": "TGI", "setting": "A549 NSCLC", "result": "> 100", "unit": "µM"}, {"measurement": "TGI", "setting": "NCI-H23 lung", "result": "> 100", "unit": "µM"}, {"measurement": "TGI", "setting": "MDA-MB-231 breast", "result": "> 100", "unit": "µM"}]}
{"smiles": "COC(=O)C1CCC(=O)N1C(c1ccccc1)c1cc(OC)c(OC)c(OC)c1", "note": "(stereo not given)", "values": [{"measurement": "TGI", "setting": "UACC-257 melanoma", "result": "> 100", "unit": "µM"}, {"measurement": "TGI", "setting": "TK-10 renal", "result": "> 100", "unit": "µM"}, {"measurement": "TGI", "setting": "COLO 205 colon", "result": "> 100", "unit": "µM"}, {"measurement": "TGI", "setting": "A498 renal", "result": "> 100", "unit": "µM"}, {"measurement": "TGI", "setting": "KM12 colon", "result": "> 100", "unit": "µM"}, {"measurement": "TGI", "setting": "BT-549 breast", "result": "> 100", "unit": "µM"}, {"measurement": "TGI", "setting": "SN12C renal", "result": "> 100", "unit": "µM"}, {"measurement": "TGI", "setting": "MCF7 breast", "result": "> 100", "unit": "µM"}, {"measurement": "TGI", "setting": "786-0 renal", "result": "> 100", "unit": "µM"}, {"measurement": "TGI", "setting": "SK-OV-3 ovarian", "result": "> 100", "unit": "µM"}, {"measurement": "TGI", "setting": "PC-3 prostate", "result": "> 100", "unit": "µM"}, {"measurement": "TGI", "setting": "HOP-92 NSCLC", "result": "> 100", "unit": "µM"}, {"measurement": "TGI", "setting": "T-47D breast", "result": "> 100", "unit": "µM"}, {"measurement": "TGI", "setting": "SR leukemia", "result": "> 100", "unit": "µM"}, {"measurement": "TGI", "setting": "NCI-H226 lung", "result": "> 100", "unit": "µM"}, {"measurement": "TGI", "setting": "K-562 leukemia", "result": 49.9, "unit": "µM"}, {"measurement": "TGI", "setting": "A549 NSCLC", "result": "> 100", "unit": "µM"}, {"measurement": "TGI", "setting": "NCI-H23 lung", "result": "> 100", "unit": "µM"}, {"measurement": "TGI", "setting": "MDA-MB-231 breast", "result": "> 100", "unit": "µM"}]}
